From patent US12441718B2, “Selective angiotensin II compounds” (VICORE PHARMA AB, priority 2021, dated 2025)
Where “and” joins values, the source holds several entries; their conditions need not be identical. Equal values may be shown once. Read-outs that look alike come from different tables or passages of the source.

What was measured:
[1] = Metabolic stability in pooled human liver microsomes; assay type: in vitro ADME; conditions: human, pooled human liver microsomes, pooled human liver microsomes 0.5 mg/mL, 1 μM test compound, 37° C., * rows = mean of two runs
Description: Pooled human liver microsomes in PBS at a concentration of 0.5 mg/mL was incubated with or without 1 mM NADPH for 70 min at 37° C. Test compound was added after 10 minutes to a final concentration of 1 μM. Samples were withdrawn at 0, 5, 15 and 60 minutes and added to test tubes containing acetonitrile, to stop the reaction, and with terfenadine, used as internal standard. After centrifugation at 10 000×g for 5 minutes the supernatant was diluted 1:1 with 1% formic acid. Samples were separated on a reverse phase column and detected by triple quadrupole MSMS (Agilant model 6540). The concentration of the parent compound at the different time points was measured with an external standard curve using terfenadine as internal standard and the initial metabolic rate in the presence or absence of NADPH calculated.

[2] = biological target: T1, human recombinant AT2 receptor (Homo sapiens, UniProt P50052); assay: Binding to AT2 receptor, radiometric scintillation assay (Eurofins ITEM26); conditions: ligand 125I CGP 42112A, * rows = mean of runs; for Ki: seven-point dose-response curve; for IC50: test compounds at 1, 10, 100 and 1000 nM, read-out: AT2 GraFit IC50
T1 construct: purchased Eurofins ITEM26 (protocol number)
T1 sequence (P50052 1-363): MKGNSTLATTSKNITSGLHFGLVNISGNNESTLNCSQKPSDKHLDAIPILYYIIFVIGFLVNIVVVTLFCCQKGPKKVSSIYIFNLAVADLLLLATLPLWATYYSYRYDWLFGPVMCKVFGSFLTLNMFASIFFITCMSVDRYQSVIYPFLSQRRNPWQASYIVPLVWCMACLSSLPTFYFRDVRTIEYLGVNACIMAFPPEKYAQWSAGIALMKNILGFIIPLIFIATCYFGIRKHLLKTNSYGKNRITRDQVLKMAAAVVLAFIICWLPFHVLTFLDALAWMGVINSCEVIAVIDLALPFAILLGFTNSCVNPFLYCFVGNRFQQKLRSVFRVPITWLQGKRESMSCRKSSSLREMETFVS

[3] = biological target: T2, CYP1A2 (Homo sapiens, UniProt P05177); assay: in vitro; assay type: in vitro ADME; conditions: human liver microsomes, substrate phenacetin; for inhibition at 10 µM: human, microsomes, read-out: CYP1A2 Inh %
T2 construct: isoform-specific substrates incubated with human liver microsomes; tissue Eurofins ITEMG232 (protocol number); host or cells: human liver microsomes
T2 sequence (P05177 whole entry, canonical isoform): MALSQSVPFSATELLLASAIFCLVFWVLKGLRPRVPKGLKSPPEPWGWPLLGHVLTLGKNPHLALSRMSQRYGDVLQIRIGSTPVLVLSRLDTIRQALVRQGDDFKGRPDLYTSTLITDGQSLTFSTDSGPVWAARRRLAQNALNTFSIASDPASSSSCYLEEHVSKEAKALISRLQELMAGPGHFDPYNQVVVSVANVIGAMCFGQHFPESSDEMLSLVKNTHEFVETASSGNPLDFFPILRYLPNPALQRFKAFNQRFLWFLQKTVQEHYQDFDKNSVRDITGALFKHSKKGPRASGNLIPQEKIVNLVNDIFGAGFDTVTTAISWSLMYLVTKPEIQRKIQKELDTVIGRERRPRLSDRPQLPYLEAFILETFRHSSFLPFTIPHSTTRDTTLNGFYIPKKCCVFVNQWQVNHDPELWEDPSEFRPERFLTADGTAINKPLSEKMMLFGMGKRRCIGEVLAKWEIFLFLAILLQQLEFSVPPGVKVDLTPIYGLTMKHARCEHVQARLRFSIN
Description: The following substrates were used; CYP1A phenacetin, CYP2B36 bupropion, CYP2C8 paclitaxel and amodiaquine, CYP2C9 diclofenac, CYP2C19 omeprazole, CYP2D6 dextromethorphan, CYP3A midazolam and testosterone.
At the end of the incubation, the formation of metabolite was monitored by HPLC-MS/MS as the peak area response.

[4] = biological target: T3, CYP2B6 (Homo sapiens, UniProt P20813); assay: CYP inhibition in human liver microsomes (Eurofins ITEMG232); assay type: in vitro ADME; conditions: probe bupropion, substrate bupropion, read-out: CYP2B6 Inh %
T3 construct: isoform-specific substrates incubated with human liver microsomes; tissue Eurofins ITEMG232 (protocol number); host or cells: human liver microsomes
T3 sequence (P20813 1-491): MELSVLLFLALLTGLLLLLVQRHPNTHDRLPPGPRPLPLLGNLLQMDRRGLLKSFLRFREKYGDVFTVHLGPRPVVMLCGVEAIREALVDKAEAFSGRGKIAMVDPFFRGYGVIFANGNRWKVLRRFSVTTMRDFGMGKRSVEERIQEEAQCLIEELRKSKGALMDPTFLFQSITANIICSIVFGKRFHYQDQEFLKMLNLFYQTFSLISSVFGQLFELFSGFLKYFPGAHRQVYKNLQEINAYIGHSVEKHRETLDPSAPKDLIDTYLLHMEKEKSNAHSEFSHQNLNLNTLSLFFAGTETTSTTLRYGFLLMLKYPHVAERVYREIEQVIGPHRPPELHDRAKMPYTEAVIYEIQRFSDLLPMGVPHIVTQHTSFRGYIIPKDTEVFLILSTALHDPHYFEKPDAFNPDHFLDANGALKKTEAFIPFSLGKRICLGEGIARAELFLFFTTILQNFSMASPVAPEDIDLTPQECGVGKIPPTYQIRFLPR

[5] = biological target: T4, CYP2C19 (Homo sapiens, UniProt P33261); assay: as above; assay type: in vitro ADME; conditions: substrate omeprazole; for inhibition at 10 µM: human, probe omeprazole, read-out: CYP2C19 Inh %
T4 construct: isoform-specific substrates incubated with human liver microsomes; tissue Eurofins ITEMG232 (protocol number); host or cells: human liver microsomes
T4 sequence (P33261 whole entry, canonical isoform): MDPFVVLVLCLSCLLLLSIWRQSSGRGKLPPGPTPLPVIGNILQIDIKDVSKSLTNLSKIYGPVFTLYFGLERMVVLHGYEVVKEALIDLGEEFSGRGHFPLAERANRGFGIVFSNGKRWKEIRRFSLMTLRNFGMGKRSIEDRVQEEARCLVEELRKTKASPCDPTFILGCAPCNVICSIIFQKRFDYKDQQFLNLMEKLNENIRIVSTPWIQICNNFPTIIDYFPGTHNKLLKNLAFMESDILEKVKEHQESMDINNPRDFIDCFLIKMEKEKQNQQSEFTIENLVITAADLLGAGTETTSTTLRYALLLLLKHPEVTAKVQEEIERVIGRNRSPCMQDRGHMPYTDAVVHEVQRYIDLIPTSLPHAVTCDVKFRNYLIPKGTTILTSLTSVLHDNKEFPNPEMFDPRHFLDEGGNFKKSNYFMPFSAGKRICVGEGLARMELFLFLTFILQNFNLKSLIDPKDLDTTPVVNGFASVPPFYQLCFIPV

[6] = biological target: T5, CYP2C8 (Homo sapiens, UniProt P10632); assay: as above; assay type: in vitro ADME; conditions: substrate paclitaxel and amodiaquine; for inhibition at 10 µM: human, probe paclitaxel and amodiaquine, read-out: CYP2C8 Inh %
T5 construct: isoform-specific substrates incubated with human liver microsomes; tissue Eurofins ITEMG232 (protocol number); host or cells: human liver microsomes
T5 sequence (P10632 1-490): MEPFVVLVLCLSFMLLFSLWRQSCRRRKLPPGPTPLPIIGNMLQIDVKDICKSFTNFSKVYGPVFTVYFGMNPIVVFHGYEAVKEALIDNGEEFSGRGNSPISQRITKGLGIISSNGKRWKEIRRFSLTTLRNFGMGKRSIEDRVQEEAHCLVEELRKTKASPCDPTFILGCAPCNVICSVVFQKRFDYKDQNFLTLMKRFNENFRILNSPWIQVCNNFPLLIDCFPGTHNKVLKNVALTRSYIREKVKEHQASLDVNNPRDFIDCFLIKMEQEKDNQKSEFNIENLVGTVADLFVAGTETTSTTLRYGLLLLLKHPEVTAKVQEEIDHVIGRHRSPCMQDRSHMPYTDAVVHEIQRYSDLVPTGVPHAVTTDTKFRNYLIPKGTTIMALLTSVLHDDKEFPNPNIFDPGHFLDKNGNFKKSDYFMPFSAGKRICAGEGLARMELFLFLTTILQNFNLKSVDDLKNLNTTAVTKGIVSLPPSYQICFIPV

[7] = biological target: T6, CYP2D6 (Homo sapiens, UniProt P10635); assay: as above; assay type: in vitro ADME; conditions: probe dextromethorphan, substrate dextromethorphan, read-out: CYP2D6 Inh %
T6 construct: isoform-specific substrates incubated with human liver microsomes; tissue Eurofins ITEMG232 (protocol number); host or cells: human liver microsomes
T6 sequence (P10635 whole entry, canonical isoform): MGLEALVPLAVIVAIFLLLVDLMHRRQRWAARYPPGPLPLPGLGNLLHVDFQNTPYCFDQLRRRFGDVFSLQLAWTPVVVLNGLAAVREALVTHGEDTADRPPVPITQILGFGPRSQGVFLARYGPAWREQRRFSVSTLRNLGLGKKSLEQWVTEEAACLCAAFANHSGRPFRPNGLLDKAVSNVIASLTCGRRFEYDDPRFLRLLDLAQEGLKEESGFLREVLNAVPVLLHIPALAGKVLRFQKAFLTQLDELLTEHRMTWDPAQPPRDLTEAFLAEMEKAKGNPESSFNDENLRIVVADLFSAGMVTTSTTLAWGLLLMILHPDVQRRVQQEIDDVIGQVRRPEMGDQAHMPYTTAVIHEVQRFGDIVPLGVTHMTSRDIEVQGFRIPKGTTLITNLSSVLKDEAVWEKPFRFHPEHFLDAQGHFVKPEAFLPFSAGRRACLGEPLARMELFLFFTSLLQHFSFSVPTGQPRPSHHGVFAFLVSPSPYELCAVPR

[8] = system: CYP3A4&5; assay: in vitro; conditions: human, human liver microsomes, probe testosterone;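 also: Read-out is the metabolite generated from the probe substrate, quantified as HPLC-MS/MS peak area once incubation ends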
[9] = biological target: CYP2C9 (Homo sapiens, UniProt P11712); assay: CYP inhibition in human liver microsomes (Eurofins ITEMG232); assay type: in vitro ADME; design: isoform-specific substrates incubated with human liver microsomes; tissue Eurofins ITEMG232 (protocol number); host or cells: human liver microsomes; conditions: substrate diclofenac; for inhibition at 10 µM: human, probe diclofenac, read-out: CYP2C9 Inh %
Chain of CYP2C9 (P11712 whole entry, canonical isoform): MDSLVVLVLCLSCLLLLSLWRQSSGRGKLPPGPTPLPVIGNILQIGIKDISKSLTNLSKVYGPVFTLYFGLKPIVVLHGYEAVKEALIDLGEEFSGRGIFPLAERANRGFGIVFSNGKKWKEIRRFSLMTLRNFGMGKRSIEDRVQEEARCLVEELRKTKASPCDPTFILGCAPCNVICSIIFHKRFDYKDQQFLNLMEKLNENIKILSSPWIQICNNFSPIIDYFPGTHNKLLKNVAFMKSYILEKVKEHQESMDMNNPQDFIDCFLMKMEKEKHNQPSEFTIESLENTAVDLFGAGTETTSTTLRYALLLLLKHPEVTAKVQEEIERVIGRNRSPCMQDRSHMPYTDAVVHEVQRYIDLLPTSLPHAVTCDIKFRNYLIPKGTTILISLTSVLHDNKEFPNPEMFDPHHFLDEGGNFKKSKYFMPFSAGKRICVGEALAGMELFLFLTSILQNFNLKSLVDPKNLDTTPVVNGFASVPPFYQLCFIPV

[10] = biological target: CYP3A4 (Homo sapiens, UniProt P08684); assay: CYP inhibition in human liver microsomes (Eurofins ITEMG232), midazolam substrate; assay type: in vitro ADME; design: isoform-specific substrates incubated with human liver microsomes; tissue Eurofins ITEMG232 (protocol number); host or cells: human liver microsomes; conditions: for inhibition at 10 µM: human, probe midazolam, read-out: CYP3A4 midazolam Inh %
Chain of CYP3A4 (P08684 whole entry, canonical isoform): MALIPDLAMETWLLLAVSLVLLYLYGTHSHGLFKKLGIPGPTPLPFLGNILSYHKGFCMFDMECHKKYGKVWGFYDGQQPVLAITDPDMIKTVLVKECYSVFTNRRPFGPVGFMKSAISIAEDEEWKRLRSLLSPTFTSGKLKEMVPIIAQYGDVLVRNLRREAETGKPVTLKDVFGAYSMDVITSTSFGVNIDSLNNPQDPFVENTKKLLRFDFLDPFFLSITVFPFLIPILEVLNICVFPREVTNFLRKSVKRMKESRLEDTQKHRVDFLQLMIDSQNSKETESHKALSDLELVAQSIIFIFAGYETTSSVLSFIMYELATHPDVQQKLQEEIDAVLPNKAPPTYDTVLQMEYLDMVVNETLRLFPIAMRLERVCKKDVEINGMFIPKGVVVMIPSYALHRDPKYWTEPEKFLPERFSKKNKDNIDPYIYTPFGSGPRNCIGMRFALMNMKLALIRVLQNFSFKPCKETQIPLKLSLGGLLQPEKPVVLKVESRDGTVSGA

[11] = with 1 mM NADPH, read-out: T1/2, + NaDPH
[12] = without NADPH, read-out: T1/2, no NaDPH

SMILES	half-life at 1 μM [1, 11] [h]	half-life at 1 μM [1, 12] [h]	Ki [2] [nM]	IC50 [2] [nM]	inhibition at 10 µM [3] [%]	inhibition at 10 µM [4] [%]	inhibition at 10 µM [5] [%]	inhibition at 10 µM [6] [%]	inhibition at 10 µM [7] [%]	inhibition at 10 µM [8] [%]	inhibition at 10 µM [9] [%]	inhibition at 10 µM [10] [%]	CYP1A2 Inh % ([3]; 10 μM)	CYP2C19 Inh % ([5]; 10 μM)	CYP2C8 Inh % ([6]; 10 μM)	CYP2C9 Inh % ([9]; 10 μM)	CYP3A4 midazolam Inh % ([10]; 10 μM)
CC(C)Cc1ccc(S(=O)(=O)Nc2ncc(Cl)cn2)c(-c2ccc(Cn3ccnc3C(C)(C)C)cc2)c1 [Example 2, 4′-((2-(tert-Butyl)-1H-imidazol-1-yl)methyl)-N-(5-chloropyrimidin-2-yl)-5-isobutyl-[1,1′-biphenyl]-2-sulfonamide]	> 1	> 1			84	14	37	88.7	5.7	3.3	46	36					
CC(C)Cc1ccc(S(=O)(=O)Nc2ncc(C#N)cn2)c(-c2ccc(Cn3ccnc3C(C)(C)C)cc2)c1 [Example 6, 4′-((2-(tert-Butyl)-1H-imidazol-1-yl)methyl)-N-(5-cyanopyrimidin-2-yl)-5-isobutyl-[1,1′-biphenyl]-2-sulfonamide]													36.2% and 65.6%	38.6% and 66.6%	49.2% and 95.6%	37.1% and 71.9%	28.2% and 48.5%
COc1ncncc1NS(=O)(=O)c1ccc(CC(C)C)cc1-c1ccc(Cn2ccnc2C(C)(C)C)cc1 [Example 18, 4′-((2-(tert-Butyl)-1H-imidazol-1-yl)methyl)-5-isobutyl-N-(4-methoxypyrimidin-5-yl)-[1,1′-biphenyl]-2-sulfonamide]	0.117	> 1			9.7	40.4	87.8	59.7	16.4	97.9	90.8	98.4					
COc1ncnc(OC)c1NS(=O)(=O)c1ccc(CC(C)C)cc1-c1ccc(Cn2ccnc2C(C)(C)C)cc1 [Example 19, 4′-((2-(tert-Butyl)-1H-imidazol-1-yl)methyl)-N-(4,6-dimethoxypyrimidin-5-yl)-5-isobutyl-[1,1′-biphenyl]-2-sulfonamide]	0.15	> 1			21.7	27.5	74.8	54.3	45.2	63	87.6	73					
CCc1nccn1Cc1ccc(-c2cc(CC(C)C)sc2S(=O)(=O)Nc2ncccn2)cc1F [Example 45, 3-(4-((2-Ethyl-1H-imidazol-1-yl)methyl)-3-fluorophenyl)-5-isobutyl-N-(pyrimidin-2-yl)thiophene-2-sulfonamide]	> 1	> 1			54	16	65	64	13	62	20	15					

The remaining lines, values ahead:

half-life at 1 μM [1, 11] [h]	half-life at 1 μM [1, 12] [h]	Ki [2] [nM]	IC50 [2] [nM]	inhibition at 10 µM [3] [%]	inhibition at 10 µM [4] [%]	inhibition at 10 µM [5] [%]	inhibition at 10 µM [6] [%]	inhibition at 10 µM [7] [%]	inhibition at 10 µM [8] [%]	inhibition at 10 µM [9] [%]	inhibition at 10 µM [10] [%]	CYP1A2 Inh % ([3]; 10 μM)	CYP2C19 Inh % ([5]; 10 μM)	CYP2C8 Inh % ([6]; 10 μM)	CYP2C9 Inh % ([9]; 10 μM)	CYP3A4 midazolam Inh % ([10]; 10 μM)	SMILES
> 1	> 1	2.12	4.2	85.4	19.5	37.2	87.8	14.1	18.2	60.5	41.7						CC(C)Cc1ccc(S(=O)(=O)Nc2ncc(Br)cn2)c(-c2ccc(Cn3ccnc3C(C)(C)C)cc2)c1 [Example 1, N-(5-Bromopyrimidin-2-yl)-4′-((2-(tert-butyl)-1H-imidazol-1-yl)methyl)-5-isobutyl-[1,1′-biphenyl]-2-sulfonamide]
0.717	> 1			19.2	56.5	70.1	92.1	44.5	56	72.9	-11.4						CC(C)Cc1ccc(S(=O)(=O)Nc2nccs2)c(-c2ccc(Cn3ccnc3C(C)(C)C)cc2)c1 [Example 5, 4′-((2-(tert-Butyl)-1H-imidazol-1-yl)methyl)-5-isobutyl-N-(thiazol-2-yl)-[1,1′-biphenyl]-2-sulfonamide]
0.567	> 1	2.92	5.85	43	55	71.2	88.3	32.6	42.6	86.6	0.4						CC(C)Cc1ccc(S(=O)(=O)Nc2nccs2)c(-c2ccc(Cn3ccnc3C(C)(C)C)c(F)c2)c1 [Example 8, 4′-((2-(tert-Butyl)-1H-imidazol-1-yl)methyl)-3′-fluoro-5-isobutyl-N-(thiazol-2-yl)-[1,1′-biphenyl]-2-sulfonamide]
> 1	> 1			33	14	64	43	9	67	30	35						Cc1nccn1Cc1ccc(-c2cc(CC(C)C)sc2S(=O)(=O)Nc2ncccn2)cc1F [Example 44, 3-(3-Fluoro-4-((2-methyl-1H-imidazol-1-yl)methyl)phenyl)-5-isobutyl-N-(pyrimidin-2-yl)thiophene-2-sulfonamide]
